In US11267826B2, “Penicillin-binding protein inhibitors” (priority 2017, dated 2022):

Key:
E. coli K12 PBP1a/b = experiment: Bocillin FL competition binding assay, PBP1a/1b combined; design: species or system Escherichia coli K12; conditions: 15 min pre-incubation, PBP 1a/1b combined
Description: (§1) To determine the ability of test compounds to bind Penicillin Binding Proteins (PBPs), a competition binding assay using Bocillin FL (fluorescent derivative of penicillin V) was adapted from the classical method used to assess PBP potency of beta-lactams.
(§2) Penicillin binding proteins were isolated from Escherichia coli K12 by growth of Escherichia coli K12 from a single colony in 4 L of Luria-Bertani (LB) broth at 35° C. and 250 rpm to an OD600 nm of 0.5. The cells were harvested by centrifugation at 7,000×g for 10 min. at 4° C. Cells were resuspended and washed in 50 mM potassium phosphate pH 7.5. The cells were re-suspended in sonication buffer [50 mM Tris-HCl pH 7.5, 1 mM MgCl2, 1 mM beta-mercaptoethanol, and 5 μg/mL DNAse I] and sonicated by 4 passes of 30 seconds at 45 W on ice. The sample was clarified by centrifugation at 3,000×g to remove cell debris and unbroken cells and supernatant containing the membrane proteins was retained. The membrane proteins including the PBPs were further purified from soluble constituents by an ultracentrifugation step at 100,000×g for 30 min. at 4° C. The membrane proteins are washed twice with 10 mM sodium phosphate pH 7, resuspended in a volume of 5 mL, quantitated by BCA assay, adjusted to […] and frozen at −80° C. until use.
(§3) The adapted Bocillin FL competition binding method described herein incorporates a 15 min. pre-incubation of test compound with isolated PBPs to attempt to balance the difference in mechanism of inhibition between beta-lactams (largely irreversible covalent bond to active site Serine) and the boron-containing PBP inhibitor test compounds (reversible covalent bond to active site Serine). Briefly, 50 μL reactions consisted of 100 μg's of total membrane protein extracts containing PBPs incubated with a dilution series of test compound ranging from 0.005 μg/mL to 2,480 μg/mL in 10 mM sodium phosphate pH7 containing 350 mM NaCl. Thirty minute reactions at 35° C. were initiated by addition of […] Bocillin FL, quenched by addition of SDS-PAGE loading buffer containing sodium dodecyl sulfate (SDS) and heated for 15 minutes at 95° C. to denature proteins in preparation for SDS-polyacrylamide gel electrophoresis. The Bocillin FL labeled PBPs are then separated by SDS-PAGE in Novex NuPage 10% Bis-Tris pre-cast gels (Invitrogen). The SDS-PAGE gel, post-electrophoresis, is then washed in water to remove excess SDS for 10 minutes at room temperature and placed on the scanning bed of a GE Healthcare/Amersham Biosciences Storm 860 fluorescence scanner. The excitation wavelength is in the blue spectrum at 450 nm and the emission at 520 nm is captured by the instrument. Effective PBP inhibitors are detected by a reduction in Bocillin FL labeling of the particular PBP over the dose range of test compound in a dose-responsive manner. High molecular weight PBP 1a/1b are not resolved by these gels, thus we report HMW PBP binding results in μg/mL for PBPs 1a/1b combined as well as for PBP2 and PBP3.
(§4) Representative results are shown in Table 2, where A represents a potency of >1000 μg/mL, B represents a potency between 64 and 1000 μg/mL inclusive, and C represents a potency of <64 μg/mL. NT=Not Tested.

E. coli PBP2 = target: T1, E. coli PBP2 (Escherichia coli, UniProt P0AD65); experiment: Bocillin FL competition binding assay, PBP2; design: species or system Escherichia coli K12; conditions: 15 min pre-incubation
T1 construct: 100 μg's of total membrane protein extracts containing PBPs; endogenous in cells; host or cells: Escherichia coli K12, membrane protein fraction
T1 sequence (P0AD65 whole entry): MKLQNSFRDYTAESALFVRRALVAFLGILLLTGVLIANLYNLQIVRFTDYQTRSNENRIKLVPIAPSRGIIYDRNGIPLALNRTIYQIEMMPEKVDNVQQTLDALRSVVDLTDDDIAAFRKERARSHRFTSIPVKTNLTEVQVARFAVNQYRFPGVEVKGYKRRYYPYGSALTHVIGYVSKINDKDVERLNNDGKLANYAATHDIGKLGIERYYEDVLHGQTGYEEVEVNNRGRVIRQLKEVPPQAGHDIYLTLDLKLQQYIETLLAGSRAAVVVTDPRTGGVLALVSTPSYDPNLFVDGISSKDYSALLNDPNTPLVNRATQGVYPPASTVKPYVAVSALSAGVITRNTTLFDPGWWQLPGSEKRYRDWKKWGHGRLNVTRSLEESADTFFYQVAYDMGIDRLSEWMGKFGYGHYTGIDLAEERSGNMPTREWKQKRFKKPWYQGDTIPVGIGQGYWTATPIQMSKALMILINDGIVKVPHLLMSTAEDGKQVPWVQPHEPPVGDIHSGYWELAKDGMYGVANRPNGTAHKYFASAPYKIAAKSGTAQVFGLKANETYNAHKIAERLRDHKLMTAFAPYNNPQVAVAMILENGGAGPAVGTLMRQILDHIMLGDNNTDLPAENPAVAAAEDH
Description: as §1, §2, §3, §4

E. coli PBP3 = target: T2, E. coli PBP3 (Escherichia coli, UniProt P0AD68); experiment: Bocillin FL competition binding assay, PBP3; design: species or system Escherichia coli K12; conditions: 15 min pre-incubation
T2 construct: 100 μg's of total membrane protein extracts containing PBPs; endogenous in cells; host or cells: Escherichia coli K12, membrane protein fraction
T2 sequence (P0AD68 1-577): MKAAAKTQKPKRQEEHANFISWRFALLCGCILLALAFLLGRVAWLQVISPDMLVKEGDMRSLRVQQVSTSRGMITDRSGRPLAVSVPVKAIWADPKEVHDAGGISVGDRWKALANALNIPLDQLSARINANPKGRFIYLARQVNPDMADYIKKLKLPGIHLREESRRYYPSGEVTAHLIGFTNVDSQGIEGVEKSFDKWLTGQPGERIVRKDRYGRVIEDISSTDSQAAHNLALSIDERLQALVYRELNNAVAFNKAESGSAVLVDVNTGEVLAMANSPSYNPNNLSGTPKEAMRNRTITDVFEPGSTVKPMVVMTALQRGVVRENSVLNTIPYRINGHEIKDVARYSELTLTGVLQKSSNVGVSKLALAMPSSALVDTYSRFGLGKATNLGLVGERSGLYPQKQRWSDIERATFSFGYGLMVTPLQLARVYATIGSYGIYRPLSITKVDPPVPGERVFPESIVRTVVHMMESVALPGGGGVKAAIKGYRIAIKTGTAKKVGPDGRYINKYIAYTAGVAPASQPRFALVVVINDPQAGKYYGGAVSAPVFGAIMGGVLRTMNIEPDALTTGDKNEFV
Description: as §1, §2, §3, §4

S. aureus ATCC 29213 = experiment: Broth microdilution MIC assay, S. aureus; format: cell-based; conditions: Staphylococcus aureus, ATCC29213; broth microdilution, 16-20 hours at 37° C.; read-out: S. aureus 29213 MIC
Method in brief: (§5)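 Growth inhibition is measured by CLSI broth microdilution. Log-phase bacteria (5×10^5 CFU/mL starting density) are incubated with 2-fold compound dilutions in cation-supplemented MH broth for 16-20 hours at 37° C, and the MIC is scored visually.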

[1] = system: hyper-permeable E. coli 901C; experiment: Broth microdilution MIC assay, hyper-permeable E. coli; format: cell-based; conditions: Escherichia coli, read-out: E. coli 901C MIC
Method in brief: as §5

Compound | E. coli K12 PBP1a/b Potency (E. coli K12 PBP1a/b) | E. coli PBP2 Potency (E. coli PBP2) | E. coli PBP3 Potency (E. coli PBP3) | MIC (S. aureus ATCC 29213) [µg/mL] | MIC [1] [µg/mL]
NCc1ccc(/C(=N/O)C(=O)N[C@H]2Cc3cccc(C(=O)O)c3OB2O)cc1 [Example 12, (R,Z)-3-(2-(4-(aminomethyl)phenyl)-2-(hydroxyimino)acetamido)-2-hydroxy-3,4-dihydro-2H-benzo[e][1,2]oxaborinine-8-carboxylic Acid] | B (B represents a potency between 64 and 1000 μg/mL inclusive) | B (B represents a potency between 64 and 1000 μg/mL inclusive) | B (B represents a potency between 64 and 1000 μg/mL inclusive) | < 64 | > 128
Nc1nc(/C(=N/O)C(=O)N[C@H]2Cc3cccc(C(=O)O)c3OB2O)c(Cl)s1 [Example 17, (R,Z)-3-(2-(2-amino-5-chlorothiazol-4-yl)-2-(hydroxyimino)acetamido)-2-hydroxy-3,4-dihydro-2H-benzo[e][1,2]oxaborinine-8-carboxylic Acid] | B (B represents a potency between 64 and 1000 μg/mL inclusive) | B (B represents a potency between 64 and 1000 μg/mL inclusive) | B (B represents a potency between 64 and 1000 μg/mL inclusive) | < 64 | 64 to 128
Nc1nc(/C(=N/O)C(=O)N[C@H]2Cc3cc(CO)cc(C(=O)O)c3OB2O)cs1 [Example 35, (R,Z)-3-(2-(2-aminothiazol-4-yl)-2-(hydroxyimino)acetamido)-2-hydroxy-6-(hydroxymethyl)-3,4-dihydro-2H-benzo[e][1,2]oxaborinine-8-carboxylic Acid] | C (C represents a potency of <64 μg/mL) | A (A represents a potency of >1000 μg/mL) | B (B represents a potency between 64 and 1000 μg/mL inclusive) | 64 to 128 | > 128
Nc1nc(/C(=N/O)C(=O)N[C@H]2Cc3cc(CCC(=O)O)cc(C(=O)O)c3OB2O)cs1 [Example 37, (R,Z)-3-(2-(2-aminothiazol-4-yl)-2-(hydroxyimino)acetamido)-6-(2-carboxyethyl)-2-hydroxy-3,4-dihydro-2H-benzo[e][1,2]oxaborinine-8-carboxylic Acid] | B (B represents a potency between 64 and 1000 μg/mL inclusive) | C (C represents a potency of <64 μg/mL) | B (B represents a potency between 64 and 1000 μg/mL inclusive) | 64 to 128 | < 64
Nc1nc(/C(=N/O)C(=O)N[C@H]2Cc3cc(F)c(F)c(C(=O)O)c3OB2O)cs1 [Example 41, (R,Z)-3-(2-(2-aminothiazol-4-yl)-2-(hydroxyimino)acetamido)-6,7-difluoro-2-hydroxy-3,4-dihydro-2H-benzo[e][1,2]oxaborinine-8-carboxylic Acid] | B (B represents a potency between 64 and 1000 μg/mL inclusive) | B (B represents a potency between 64 and 1000 μg/mL inclusive) | B (B represents a potency between 64 and 1000 μg/mL inclusive) | 64 to 128 | < 64
COc1cc2c(c(C(=O)O)c1)OB(O)[C@@H](NC(=O)/C(=N\O)c1csc(N)n1)C2 [Example 42, (R,Z)-3-(2-(2-aminothiazol-4-yl)-2-(hydroxyimino)acetamido)-2-hydroxy-6-methoxy-3,4-dihydro-2H-benzo[e][1,2]oxaborinine-8-carboxylic Acid] | C (C represents a potency of <64 μg/mL) | C (C represents a potency of <64 μg/mL) | C (C represents a potency of <64 μg/mL) | < 64 | < 64
Nc1nc(/C(=N/O)C(=O)N[C@H]2Cc3cc(Cl)cc(C(=O)O)c3OB2O)cs1 [Example 44, (R,Z)-3-(2-(2-aminothiazol-4-yl)-2-(hydroxyimino)acetamido)-6-chloro-2-hydroxy-3,4-dihydro-2H-benzo[e][1,2]oxaborinine-8-carboxylic Acid] | B (B represents a potency between 64 and 1000 μg/mL inclusive) | B (B represents a potency between 64 and 1000 μg/mL inclusive) | B (B represents a potency between 64 and 1000 μg/mL inclusive) | < 64 | < 64
N#Cc1ccc(OCCO/N=C(\C(=O)N[C@H]2Cc3cccc(C(=O)O)c3OB2O)c2csc(N)n2)cc1 [Example 46, (R,Z)-3-(2-(2-aminothiazol-4-yl)-2-((2-(4-cyanophenoxy)ethoxy)imino)acetamido)-2-hydroxy-3,4-dihydro-2H-benzo[e][1,2]oxaborinine-8-carboxylic Acid] | C (C represents a potency of <64 μg/mL) | C (C represents a potency of <64 μg/mL) | B (B represents a potency between 64 and 1000 μg/mL inclusive) | 64 to 128 | < 64
Nc1nc(/C(=N/OCCOc2ccccc2)C(=O)N[C@H]2Cc3cccc(C(=O)O)c3OB2O)cs1 [Example 50, (R,Z)-3-(2-(2-aminothiazol-4-yl)-2-((2-phenoxyethoxy)imino)acetamido)-2-hydroxy-3,4-dihydro-2H-benzo[e][1,2]oxaborinine-8-carboxylic Acid] | B (B represents a potency between 64 and 1000 μg/mL inclusive) | B (B represents a potency between 64 and 1000 μg/mL inclusive) | B (B represents a potency between 64 and 1000 μg/mL inclusive) | 64 to 128 | < 64
N=C(N)c1ccc(OCCO/N=C(\C(=O)N[C@H]2Cc3cccc(C(=O)O)c3OB2O)c2csc(N)n2)cc1 [Example 55, (R,Z)-3-(2-(2-aminothiazol-4-yl)-2-((2-(4-carbamimidoylphenoxy)ethoxy)imino)acetamido)-2-hydroxy-3,4-dihydro-2H-benzo[e][1,2]oxaborinine-8-carboxylic Acid] | C (C represents a potency of <64 μg/mL) | B (B represents a potency between 64 and 1000 μg/mL inclusive) | C (C represents a potency of <64 μg/mL) | > 128 | < 64
N#Cc1ccc(NC(=O)CO/N=C(\C(=O)N[C@H]2Cc3cccc(C(=O)O)c3OB2O)c2csc(N)n2)cc1 [Example 56, (R,Z)-3-(2-(2-aminothiazol-4-yl)-2-((2-((4-cyanophenyl)amino)-2-oxoethoxy)imino)acetamido)-2-hydroxy-3,4-dihydro-2H-benzo[e][1,2]oxaborinine-8-carboxylic Acid] | B (B represents a potency between 64 and 1000 μg/mL inclusive) | C (C represents a potency of <64 μg/mL) | C (C represents a potency of <64 μg/mL) | 64 to 128 | < 64
CNC(=O)CO/N=C(\C(=O)N[C@H]1Cc2cccc(C(=O)O)c2OB1O)c1csc(N)n1 [Example 57, (R,Z)-3-(2-(2-aminothiazol-4-yl)-2-((2-(methylamino)-2-oxoethoxy)imino)acetamido)-2-hydroxy-3,4-dihydro-2H-benzo[e][1,2]oxaborinine-8-carboxylic Acid] | C (C represents a potency of <64 μg/mL) | B (B represents a potency between 64 and 1000 μg/mL inclusive) | C (C represents a potency of <64 μg/mL) | > 128 | < 64
